Experimental data taken from patent US12540197B2, “Anti-tissue factor antibodies and antibody conjugates, compositions comprising anti-tissue factor antibodies or antibody conjugates, and methods of making and using anti-tissue factor antibodies and antibody conjugates” (SUTRO BIOPHARMA, INC., priority 2023, dated 2026).

System: BxPC3 cells
Experiment: Secondary ADC cell killing assay (antibody + anti-human Fc nanobody conjugated to SC236) on BxPC3
Type: cell-based
Conditions: Table 15, scFv-Fc from SRP2842; nanobody-SC236 20 nM, 120 hrs
Procedure: The internalization ability of the lead antibodies was evaluated by an ADC cell killing assay on Tissue Factor positive BxPC3 cells. A total of 625 cells in a volume of 25 μL were seeded in each well of a 384-well flat bottom white polystyrene plate. Lead antibodies were formulated at 4-fold starting concentration in the cell culture medium and filtered through MultiScreenHTS 96-Well Filter Plates (Millipore; Billerica, Massachusetts). 12.5 μL of antibody was added into each treatment well, and 12.5 μL of anti-human Fc nanobody conjugated to SC236 was then added into each well at a fixed final concentration of 20 nM. Assay plates were cultured at 37° C. in a CO2 incubator for 120 hrs before assay. For cell viability measurement, 30 μL of Cell Titer-Glo® reagent (Promega Corp. Madison, WI) was added into each well, and plates were processed as per product instructions. Relative luminescence was measured on an ENVISION® plate reader (Perkin-Elmer; Waltham, MA). Relative luminescence readings were converted to percent viability using untreated cells as controls. Data was fitted with non-linear regression analysis, using a log (inhibitor) vs. response-variable slope, 4 parameter fit with GraphPad Prism (GraphPad v 5.0, Software; San Diego, California).

**Q.** What does the source list for Tisotumab?
**A.** BxPC3 Cell Killing Span (%): 94.7%; EC50: 0.023 nM
